Results from US5698522A, “6-position modified decapeptide LHRH antagonists” (Abbott Laboratories, priority 1995, dated 1997).
*1 amine or outer side, *2 acyl side, *3 side chain or, on linkers, in order; H or OH if unused. Where a SMILES comes first, the peptide text is derived from it. Side-chain parts run from the residue outwards. [ ]: non-standard residue; d: D form. The star is where a group is joined. X3 = O=Cn1cc(C[C@@H](NC(=O)C2=C[C@@H](O)[C@@H](O)[C@H](O)C2)C(=O)*)c2ccccc21; NMePhe(4-NH(5-NH2-Trz-3-yl)) = CN[C@@H](Cc1ccc(Nc2n[nH]c(N)n2)cc1)C(=O)O; Biotin = O=C1N[C@H]2[C@H](CS[C@H]2CCCCC(=O)*)N1; dPhe(4-Cl) = N[C@H](Cc1ccc(Cl)cc1)C(=O)O; d2Nal = N[C@H](Cc1ccc2ccccc2c1)C(=O)O; Acetyl(3-pyridyl) = O=C(Cc1cccnc1)*; Lys(iPr) = CC(C)NCCCC[C@H](N)C(=O)O; NMeY = CN[C@@H](Cc1ccc(O)cc1)C(=O)O; Ethylenediamine = C(CN[*:2])N[*:1]; d3Pal = N[C@H](Cc1cccnc1)C(=O)O; Nicotinoyl = O=C(c1cccnc1)*; X4 = Nc1nc(NCC(=O)*)n[nH]1; 2Furoyl = O=C(c1ccco1)*; CO = O=C([*:1])[*:2]; X2 = O=C(c1ccoc1)*; azaGly = NNC(=O)O; Sar = CNCC(=O)O

biological target: T1, LHRH receptor (Rattus norvegicus, UniProt P30969); assay: in vitro LHRH antagonist potency (pA2) against the agonist leuprolide; format: cell-based; settings: negative logarithm of the antagonist concentration which shifts the response curve produced by the agonist leuprolide to two-fold higher concentration
T1 construct: endogenous in cells
T1 sequence (P30969 1-327): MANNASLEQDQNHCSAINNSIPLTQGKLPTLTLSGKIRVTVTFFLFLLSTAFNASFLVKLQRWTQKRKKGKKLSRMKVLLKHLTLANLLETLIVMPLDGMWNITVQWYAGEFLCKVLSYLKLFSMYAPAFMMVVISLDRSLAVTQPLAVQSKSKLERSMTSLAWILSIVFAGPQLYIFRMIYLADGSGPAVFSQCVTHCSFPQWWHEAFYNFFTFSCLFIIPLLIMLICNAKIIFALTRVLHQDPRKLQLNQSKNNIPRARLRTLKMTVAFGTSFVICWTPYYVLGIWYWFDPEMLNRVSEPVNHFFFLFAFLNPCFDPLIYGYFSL
Outline: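 Functional antagonism against the agonist leuprolide. pA2 is the negative log of antagonist concentration that shifts the leuprolide response curve to twofold higher concentration.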

SMILES	Kb
CC(=O)N[C@H](Cc1ccc2ccccc2c1)C(=O)N[C@H](Cc1ccc(Cl)cc1)C(=O)N[C@H](Cc1cccnc1)C(=O)N[C@@H](CO)C(=O)N(C)[C@@H](Cc1ccc(O)cc1)C(=O)N[C@H](CCCCNC(=O)NNC(=O)c1ccco1)C(=O)N[C@@H](CC(C)C)C(=O)N[C@@H](CCCCNC(C)C)C(=O)N1CCC[C@H]1C(=O)N(C)CC(N)=O [Example 59, NAc-D2Nal^1 -D4ClPhe^2 -D3Pal^3 -Ser^4 -NMeTyr^5 -DLys(N-epsilon-Azagly-Fur-2-oyl)^6 -Leu^7 -Lys(N-epsilon-Isopropyl)^8 -Pro^9 -Sar^10 NH2] (Ac-[d2Nal][dPhe(4-Cl)][d3Pal]S[NMeY][dK]([azaGly-2Furoyl])L[Lys(iPr)]P[Sar]-NH2)	0.0363 nM
CC(=O)N[C@H](Cc1ccc2ccccc2c1)C(=O)N[C@H](Cc1ccc(Cl)cc1)C(=O)N[C@H](Cc1cccnc1)C(=O)N[C@@H](CO)C(=O)N(C)[C@@H](Cc1ccc(O)cc1)C(=O)N[C@H](CCCCNC(=O)NNC(=O)c1cccnc1)C(=O)N[C@@H](CC(C)C)C(=O)N[C@@H](CCCCNC(C)C)C(=O)N1CCC[C@H]1C(=O)N(C)CC(N)=O [Example 60, NAc-D2Nal^1 -D4ClPhe^2 -D3Pal^3 -Ser^4 -NMeTyr^5 -DLys(N-epsilon-Azagly-Nicotinyl)^6 -Leu^7 -Lys(N-epsilon-Isopropyl)^8 -Pro^9 -Sar^10 NH2] (Ac-[d2Nal][dPhe(4-Cl)][d3Pal]S[NMeY][dK]([azaGly-Nicotinoyl])L[Lys(iPr)]P[Sar]-NH2)	0.0282 nM
CC(=O)N[C@H](Cc1ccc2ccccc2c1)C(=O)N[C@H](Cc1ccc(Cl)cc1)C(=O)N[C@H](Cc1cccnc1)C(=O)N[C@@H](CO)C(=O)N(C)[C@@H](Cc1ccc(O)cc1)C(=O)N[C@H](CCCCNC(=O)NCCNC(=O)c1cccnc1)C(=O)N[C@@H](CC(C)C)C(=O)N[C@@H](CCCCNC(C)C)C(=O)N1CCC[C@H]1C(=O)N[C@H](C)C(N)=O [Example 62, NAc-D2Nal^1 -D4ClPhe^2 -D3Pal^3 -Ser^4 -NMeTyr^5 -DLys(N-epsilon-N'-Carbonyl-Diaminoethane-N"-Nicotinyl)^6 -Leu^7 -Lys(N-epsilon-Isopropyl)^8 -Pro^9 -DAla^10 NH2] (Ac-[d2Nal][dPhe(4-Cl)][d3Pal]S[NMeY][dK]([CO-Ethylenediamine-Nicotinoyl])L[Lys(iPr)]P[dA]-NH2)	0.0263 nM
CC(=O)N[C@H](Cc1ccc2ccccc2c1)C(=O)N[C@H](Cc1ccc(Cl)cc1)C(=O)N[C@H](Cc1cccnc1)C(=O)N[C@@H](CO)C(=O)N(C)[C@@H](Cc1ccc(Nc2n[nH]c(N)n2)cc1)C(=O)N[C@H](CCCCNC(=O)CNc1n[nH]c(N)n1)C(=O)N[C@@H](CC(C)C)C(=O)N[C@@H](CCCCNC(C)C)C(=O)N1CCC[C@H]1C(=O)N[C@H](C)C(N)=O [Example 63, NAc-D2Nal^1 -D4ClPhe^2 -D3Pal^3 -Ser^4 -NMePhe(Atz)^5 -DLys(N-epsilon-N'-Gly-Atz)^6 -Leu^7 -Lys(N-epsilon-Isopropyl)^8 -Pro^9 -DAla^10 NH2] (Ac-[d2Nal][dPhe(4-Cl)][d3Pal]S[NMePhe(4-NH(5-NH2-Trz-3-yl))][dK](X4)L[Lys(iPr)]P[dA]-NH2)	0.00447 nM
CC(=O)N[C@H](Cc1ccc2ccccc2c1)C(=O)N[C@H](Cc1ccc(Cl)cc1)C(=O)N[C@H](Cc1cccnc1)C(=O)N[C@@H](CO)C(=O)N(C)[C@@H](Cc1ccc(O)cc1)C(=O)N[C@H](CCCCNC(=O)CNC(=O)CCCC[C@@H]1SC[C@@H]2NC(=O)N[C@@H]21)C(=O)N[C@@H](CC(C)C)C(=O)N[C@@H](CCCCNC(C)C)C(=O)N1CCC[C@H]1C(=O)N[C@H](C)C(N)=O [Example 64, NAc-D2Nal^1 -D4ClPhe^2 -D3Pal^3 -Ser^4 -NMeTyr^5 -DLys(N-epsilon-Gly-Biotinyl)^6 -Leu^7 -Lys(N-epsilon-isopropyl)^8 -Pro^9 -DAla^10 NH2] (Ac-[d2Nal][dPhe(4-Cl)][d3Pal]S[NMeY][dK]([Gly-Biotin])L[Lys(iPr)]P[dA]-NH2)	0.0115 nM
CC(=O)N[C@H](Cc1ccc2ccccc2c1)C(=O)N[C@H](Cc1ccc(Cl)cc1)C(=O)N[C@H](Cc1cccnc1)C(=O)N[C@@H](CO)C(=O)N(C)[C@@H](Cc1ccc(O)cc1)C(=O)N[C@H](CCCCNC(=O)[C@@H](Cc1cn(C=O)c2ccccc12)NC(=O)C1=C[C@@H](O)[C@@H](O)[C@H](O)C1)C(=O)N[C@@H](CC(C)C)C(=O)N[C@@H](CCCNC(=N)N)C(=O)N1CCC[C@H]1C(=O)N[C@H](C)C(N)=O [Example 65a, NAc-D2Nal^1 -D4ClPhe^2 -D3Pal^3 -Ser^4 -NMeTyr^5 -DLys(N-epsilon-DTrp(Formyl)-Shikimyl)^6 -Leu^7 -Arg^8 -Pro^9 -DAla^10 NH2] (Ac-[d2Nal][dPhe(4-Cl)][d3Pal]S[NMeY][dK](X3)LRP[dA]-NH2)	0.0251 nM
CC(=O)N[C@H](Cc1ccc2ccccc2c1)C(=O)N[C@H](Cc1ccc(Cl)cc1)C(=O)N[C@H](Cc1cccnc1)C(=O)N[C@@H](CO)C(=O)N(C)[C@@H](Cc1ccc(O)cc1)C(=O)N[C@H](CCCCNC(=O)[C@@H](CO)NC(=O)c1ccoc1)C(=O)N[C@@H](CC(C)C)C(=O)N[C@@H](CCCNC(=N)N)C(=O)N1CCC[C@H]1C(=O)N[C@H](C)C(N)=O [Example 65b, NAc-D2Nal^1 -D4ClPhe^2 -D3Pal^3 -Ser^4 -NMeTyr^5 -DLys(N-epsilon-DSer-3Furoyl)^6 -Leu^7 -Arg^8 -Pro^9 -DAla^10 NH2] (Ac-[d2Nal][dPhe(4-Cl)][d3Pal]S[NMeY][dK]([dS-X2])LRP[dA]-NH2)	0.00229 nM
CC(=O)N[C@H](Cc1ccc2ccccc2c1)C(=O)N[C@H](Cc1ccc(Cl)cc1)C(=O)N[C@H](Cc1cccnc1)C(=O)N[C@@H](CO)C(=O)N(C)[C@@H](Cc1ccc(O)cc1)C(=O)N[C@H](CCCCNC(=O)CNC(=O)Cc1cccnc1)C(=O)N[C@@H](CC(C)C)C(=O)N[C@@H](CCCNC(=N)N)C(=O)N1CCC[C@H]1C(=O)N[C@H](C)C(N)=O [Example 65c, NAc-D2Nal^1 -D4ClPhe^2 -D3Pal^3 -Ser^4 -NMeTyr^5 -DLys(N-epsilon-Gly-3Pyridylacetyl)^6 -Leu^7 -Arg^8 -Pro^9 -DAla^10 NH2] (Ac-[d2Nal][dPhe(4-Cl)][d3Pal]S[NMeY][dK]([Gly-Acetyl(3-pyridyl)])LRP[dA]-NH2)	0.0288 nM
